From ChEMBL document CHEMBL5136997, “Sulfur-Containing Phenolic Compounds from the Cave Soil-Derived Aspergillus fumigatus GZWMJZ-152” (J Nat Prod, 2022)

Tests used:
Assay type in all cases: functional
[1] = Antioxidant activity assessed as AAPH radical scavenging activity at 12.5 uM ORAC assay
[2] = Antioxidant activity assessed as DPPH radical scavenging activity incubated for 30 mins
PC-12 = assay: Cytoprotective activity against H2O2-induced oxidative injury in rat PC-12 cells assessed as cell viability at 10 uM incubated for 24 hrs (reference value: 46.91 +/- 3.74%); conditions: for viability at 10 µM: read-out: Activity

Molecule | Activity (umolequiv/umol) [1] | IC50 [2] [µM] | viability at 10 µM (PC-12) [%] | Activity (PC-12) [%]
COC(=O)c1c(C(=O)c2c(O)cc(C)cc2OC)c(OC)cc(O)c1[S+](C)[O-] (racemic) | 1.73 | > 100 | 62.4 | 
VITAMIN E |  |  |  | 57.7
COC1=CC(=O)C(C)=C(O)C1=O | 0.67 | 17.3 | 50 | 
COC(=O)c1c(SC[C@H]2NC(=O)CNC2=O)c(O)cc(OC)c1C(=O)c1c(O)cc(C)cc1OC | 0.78 | > 100 | 54.2 | 
COc1c(O)c(O)c(C)c2sc(CO)nc12 | 0.66 | 23.7 | 43.2 | 
COC(=O)c1c2c(cc(OC)c1C(=O)c1c(O)cc(C)cc1OC)O[C@@H](OC)CS2 | 0.08 | > 100 |  | 
COC(=O)c1c2c(cc(OC)c1C(=O)c1c(O)cc(C)cc1OC)O[C@H](OC)CS2 | 0.02 | > 100 |  | 
COC(=O)CSc1c(O)cc(OC)c(C(=O)c2c(O)cc(C)cc2OC)c1C(=O)OC | 1.65 | > 100 | 49.1 | 
O=C1O[C@H]([C@@H](O)CO)C(O)=C1O [ASCORBIC ACID] |  | 11.9 |  | 
COC(=O)c1c(C(=O)c2c(O)cc(C)cc2OC)c(OC)cc(O)c1[S@+](C)[O-] | 1.59 | > 100 |  | 
COC(=O)c1c(C(=O)c2c(O)cc(C)cc2OC)c(OC)cc(O)c1[S@@+](C)[O-] | 1.76 | > 100 |  | 
COC(=O)c1c2c(cc(OC)c1C(=O)c1c(O)cc(C)cc1OC)OC(OC)CS2 (racemic) | 0.03 | > 100 | 63.2 | 
COC(=O)c1cc(O)cc(OC)c1C(=O)c1c(O)cc(C)cc1OC | 1.55 | > 100 | 51.7 | 
COc1c(O)c(O)c(C)c2scnc12 | 0.73 | 3.45 | 47.9 | 
